Measurements from article PMC6271649, “Synthesis and Biological Evaluation of Substituted Desloratadines as Potent Arginine Vasopressin V2 Receptor Antagonists” (Molecules, 2014).
Read-outs that look alike come from different tables or passages of the source.

Assays:
Experiment in all cases: radioligand binding assay
[1] = biological target: T1, human recombinant vasopressin V2 receptor (Homo sapiens, UniProt P30518); settings: read-out: Bingding Assy (IC50; nmol/mL) / V2
T1 construct: gene AVPR2; full-length recombinant receptor in 1321N1 host cells (PerkinElmer)
Excerpt: (§1) radioligand binding assay on human recombinant vasopressin V2 receptor

[2] = biological target: T2, human recombinant vasopressin V1a receptor (Homo sapiens, UniProt P37288); type: cell-based; settings: read-out: Bingding Assy (IC50; nmol/mL) / V1a
T2 construct: gene AVPR1A; full-length recombinant receptor in 1321N1 host cells (PerkinElmer)
Excerpt: (§2) radioligand binding assay on human recombinant vasopressin V1a receptor

[3] = biological target: T2, human recombinant vasopressin V1a receptor; settings: read-out: Bingding Assy (IC50; nmol/mL) / V1a
Excerpt: as §2

[4] = biological target: T1, human recombinant vasopressin V2 receptor; type: cell-based; settings: read-out: Bingding Assy (IC50; nmol/mL) / V2
Excerpt: as §1

T2 sequence (P37288 whole entry): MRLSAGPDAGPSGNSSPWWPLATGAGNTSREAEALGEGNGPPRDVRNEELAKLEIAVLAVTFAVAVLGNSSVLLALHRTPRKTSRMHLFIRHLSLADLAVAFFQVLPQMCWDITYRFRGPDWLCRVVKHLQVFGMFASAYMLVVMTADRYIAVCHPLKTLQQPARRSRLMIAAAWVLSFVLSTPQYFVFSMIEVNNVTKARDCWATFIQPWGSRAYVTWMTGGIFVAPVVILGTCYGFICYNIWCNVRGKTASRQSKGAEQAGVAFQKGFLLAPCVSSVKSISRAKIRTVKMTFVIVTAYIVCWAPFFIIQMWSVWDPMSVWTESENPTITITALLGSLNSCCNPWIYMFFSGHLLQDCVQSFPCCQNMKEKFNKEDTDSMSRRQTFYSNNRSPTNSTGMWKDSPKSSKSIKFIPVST
T1 sequence (P30518 whole entry): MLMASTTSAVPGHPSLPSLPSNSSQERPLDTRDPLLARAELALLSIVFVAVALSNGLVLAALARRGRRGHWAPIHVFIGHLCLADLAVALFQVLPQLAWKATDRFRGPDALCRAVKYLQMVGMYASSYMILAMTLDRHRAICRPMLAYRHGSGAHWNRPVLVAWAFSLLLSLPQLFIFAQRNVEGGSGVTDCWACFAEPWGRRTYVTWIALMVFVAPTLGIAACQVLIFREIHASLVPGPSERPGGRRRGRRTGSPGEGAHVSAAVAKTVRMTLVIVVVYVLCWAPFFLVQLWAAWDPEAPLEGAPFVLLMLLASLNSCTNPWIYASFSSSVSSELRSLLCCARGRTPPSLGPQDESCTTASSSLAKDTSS

SMILES | IC50 [1] | IC50 [2] | IC50 [3] | IC50 [4]
CCCC(=O)Nc1ccc(S(=O)(=O)N2CCC(=C3c4ccc(Cl)cc4CCc4cccnc43)CC2)cc1 [1f, N-(4-((4-(8-Chloro-5H-benzo[5,6]cyclohepta[1,2-b]pyridin-11(6H)-ylidene)piperidin-1-yl)sulfonyl)phenyl)butyramide] | – | – | 480 nmol/mL | 40 nmol/mL
CCCC(=O)Nc1ccc(C(=O)N2CCC(=C3c4ccc(Cl)cc4CCc4cccnc43)CC2)cc1 [1b] | – | – | > 1000 nmol/mL | 47 nmol/mL
O=C(CCCCl)Nc1ccc(C(=O)N2CCC(=C3c4ccc(Cl)cc4CCc4cccnc43)CC2)cc1 [1c, 4-Chloro-N-(4-(4-(8-chloro-5H-benzo[5,6]cyclohepta[1,2-b]pyridin-11(6H)-ylidene)piperidine-1-carbonyl)phenyl)butanamide] | – | – | > 1000 nmol/mL | 25 nmol/mL
O=C(Nc1cccc(S(=O)(=O)N2CCC(=C3c4ccc(Cl)cc4CCc4cccnc43)CC2)c1)c1cccc([N+](=O)[O-])c1 [1v, N-(3-((4-(8-Chloro-5H-benzo[5,6]cyclohepta[1,2-b]pyridin-11(6H)-ylidene)piperidin-1-yl)sulfonyl)phenyl)-3-nitrobenzamide] | – | 630 nmol/mL | – | –
O=C(Nc1ccc(C(=O)N2CCC(=C3c4ccc(Cl)cc4CCc4cccnc43)CC2)cc1)c1ccccc1 [1g, N-(4-(4-(8-Chloro-5H-benzo[5,6]cyclohepta[1,2-b]pyridin-11(6H)-ylidene)piperidine-1-carbonyl)phenyl)benzamide] | – | – | 330 nmol/mL | 19 nmol/mL
O=C(c1ccc(NS(=O)(=O)c2ccccc2Cl)cc1)N1CCC(=C2c3ccc(Cl)cc3CCc3cccnc32)CC1 [1r, 2-Chloro-N-(4-(4-(8-chloro-5H-benzo[5,6]cyclohepta[1,2-b]pyridin-11(6H)-ylidene)piperidine-1-carbonyl)phenyl)benzenesulfonamide] | – | 830 nmol/mL | – | –
Cc1ccc(C(=O)Nc2ccc(C(=O)N3CCC(=C4c5ccc(Cl)cc5CCc5cccnc54)CC3)cc2)cc1 [1i] | – | 220 nmol/mL | – | 18 nmol/mL
O=C(Nc1cccc(S(=O)(=O)N2CCC(=C3c4ccc(Cl)cc4CCc4cccnc43)CC2)c1)c1cccc(Cl)c1 [1u, 3-Chloro-N-(3-((4-(8-chloro-5H-benzo[5,6]cyclohepta[1,2-b]pyridin-11(6H)-ylidene)piperidin-1-yl)-sulfonyl)phenyl)benzamide] | 19 nmol/mL | 840 nmol/mL | – | –
Cc1cccc(C(=O)Nc2ccc(C(=O)N3CCC(=C4c5ccc(Cl)cc5CCc5cccnc54)CC3)cc2)c1 [1j, N-(4-(4-(8-Chloro-5H-benzo[5,6]cyclohepta[1,2-b]pyridin-11(6H)-ylidene)piperidine-1-carbonyl)phenyl)-3-methylbenzamide] | – | 370 nmol/mL | – | –
O=C(Nc1ccc(C(=O)N2CCC(=C3c4ccc(Cl)cc4CCc4cccnc43)CC2)cc1)c1ccc([N+](=O)[O-])cc1 [1p, N-(4-(4-(8-Chloro-5H-benzo[5,6]cyclohepta[1,2-b]pyridin-11(6H)-ylidene)piperidine-1-carbonyl)phenyl)-4-nitrobenzamide] | – | > 1000 nmol/mL | – | 52 nmol/mL
O=C(c1ccc(NS(=O)(=O)c2cc(Cl)ccc2Cl)cc1)N1CCC(=C2c3ccc(Cl)cc3CCc3cccnc32)CC1 [1s, 2,5-Dichloro-N-(4-(4-(8-chloro-5H-benzo[5,6]cyclohepta[1,2-b]pyridin-11(6H)-ylidene)piperidine-1-carbonyl)phenyl)benzenesulfonamide] | – | 320 nmol/mL | – | –
O=C(Nc1ccc(C(=O)N2CCC(=C3c4ccc(Cl)cc4CCc4cccnc43)CC2)cc1)c1ccccc1F [1m, N-(4-(4-(8-Chloro-5H-benzo[5,6]cyclohepta[1,2-b]pyridin-11(6H)-ylidene)piperidine-1-carbonyl)phenyl)-2-fluorobenzamide] | – | 170 nmol/mL | – | 20 nmol/mL

Now from value to compound:

IC50 [1] | IC50 [2] | IC50 [3] | IC50 [4] | SMILES
170 nmol/mL | 920 nmol/mL | – | – | Cc1ccc(S(=O)(=O)Nc2ccc(S(=O)(=O)N3CCC(=C4c5ccc(Cl)cc5CCc5cccnc54)CC3)cc2)cc1 [1y, N-(4-((4-(8-Chloro-5H-benzo[5,6]cyclohepta[1,2-b]pyridin-11(6H)-ylidene)piperidin-1-yl)sulfonyl)phenyl)-4-methylbenzenesulfonamide]
– | – | 176 nmol/mL | 26 nmol/mL | CCCC(=O)Nc1cccc(S(=O)(=O)N2CCC(=C3c4ccc(Cl)cc4CCc4cccnc43)CC2)c1 [1e, N-(3-((4-(8-Chloro-5H-benzo[5,6]cyclohepta[1,2-b]pyridin-11(6H)-ylidene)piperidin-1-yl)sulfonyl)phenyl)butyramide]
– | 210 nmol/mL | – | 23 nmol/mL | Cc1ccccc1C(=O)Nc1ccc(C(=O)N2CCC(=C3c4ccc(Cl)cc4CCc4cccnc43)CC2)cc1 [1h]
– | 490 nmol/mL | – | 27 nmol/mL | O=C(Nc1ccc(C(=O)N2CCC(=C3c4ccc(Cl)cc4CCc4cccnc43)CC2)cc1)c1ccccc1Cl [1k, 2-Chloro-N-(4-(4-(8-chloro-5H-benzo[5,6]cyclohepta[1,2-b]pyridin-11(6H)-ylidene)piperidine-1-carbonyl)phenyl)benzamide]
– | 390 nmol/mL | – | – | COc1cccc(C(=O)Nc2ccc(C(=O)N3CCC(=C4c5ccc(Cl)cc5CCc5cccnc54)CC3)cc2)c1 [1n, N-(4-(4-(8-Chloro-5H-benzo[5,6]cyclohepta[1,2-b]pyridin-11(6H)-ylidene)piperidine-1-carbonyl)phenyl)-3-methoxybenzamide]
– | 560 nmol/mL | – | 16 nmol/mL | O=C(Nc1ccc(C(=O)N2CCC(=C3c4ccc(Cl)cc4CCc4cccnc43)CC2)cc1)c1cccc(Cl)c1 [1l, 3-Chloro-N-(4-(4-(8-chloro-5H-benzo[5,6]cyclohepta[1,2-b]pyridin-11(6H)-ylidene)piperidine-1-carbonyl)phenyl)benzamide]
310 nmol/mL | > 1000 nmol/mL | – | – | O=C(Nc1ccc(S(=O)(=O)N2CCC(=C3c4ccc(Cl)cc4CCc4cccnc43)CC2)cc1)c1cccc(Cl)c1 [1x, 3-Chloro-N-(4-((4-(8-chloro-5H-benzo[5,6]cyclohepta[1,2-b]pyridin-11(6H)-ylidene)piperidin-1-yl)-sulfonyl)phenyl)benzamide]
30 nmol/mL | 860 nmol/mL | – | – | Cc1ccc(S(=O)(=O)Nc2cccc(S(=O)(=O)N3CCC(=C4c5ccc(Cl)cc5CCc5cccnc54)CC3)c2)cc1 [1w, N-(3-((4-(8-Chloro-5H-benzo[5,6]cyclohepta[1,2-b]pyridin-11(6H)-ylidene)piperidin-1-yl)sulfonyl)phenyl)-4-methylbenzenesulfonamide]
– | > 1000 nmol/mL | – | – | O=C(Nc1cccc(S(=O)(=O)N2CCC(=C3c4ccc(Cl)cc4CCc4cccnc43)CC2)c1)c1ccccc1 [1t, N-(3-((4-(8-Chloro-5H-benzo[5,6]cyclohepta[1,2-b]pyridin-11(6H)-ylidene)piperidin-1-yl)sulfonyl)phenyl)benzamide]
– | 720 nmol/mL | – | 24 nmol/mL | Cc1ccc(S(=O)(=O)Nc2ccc(C(=O)N3CCC(=C4c5ccc(Cl)cc5CCc5cccnc54)CC3)cc2)cc1 [1q, N-(4-(4-(8-Chloro-5H-benzo[5,6]cyclohepta[1,2-b]pyridin-11(6H)-ylidene)piperidine-1-carbonyl)phenyl)-4-methylbenzenesulfonamide]
– | – | 130 nmol/mL | – | CCC(=O)Nc1ccc(C(=O)N2CCC(=C3c4ccc(Cl)cc4CCc4cccnc43)CC2)cc1 [1a]
– | – | 92 nmol/mL | – | CCS(=O)(=O)Nc1ccc(C(=O)N2CCC(=C3c4ccc(Cl)cc4CCc4cccnc43)CC2)cc1 [1d, N-(4-(4-(8-Chloro-5H-benzo[5,6]cyclohepta[1,2-b]pyridin-11(6H)-ylidene)piperidine-1-carbonyl)phenyl)ethanesulfonamide]
– | 550 nmol/mL | – | 18 nmol/mL | O=C(Nc1ccc(C(=O)N2CCC(=C3c4ccc(Cl)cc4CCc4cccnc43)CC2)cc1)c1cccc([N+](=O)[O-])c1 [1o, N-(4-(4-(8-Chloro-5H-benzo[5,6]cyclohepta[1,2-b]pyridin-11(6H)-ylidene)piperidine-1-carbonyl)phenyl)-3-nitrobenzamide]
